Tested on: Euonymus alata diacylglycerol acetyltransferase (AcDAGAT), native enzyme activity in cell free homogenate of endosperm plus embryo
Test: AcDAGAT assay with [1-14C]acetyl-CoA in cell free homogenate (CFH) of developing Euonymus alata seeds
Format: biochemical
Experimental: Characterization of acyltransferase activity by in vitro assays. Acyltransferase activity was assayed by incubating [^14C]acetyl-CoA with cell free extracts from developing Euonymus alata seeds and exogenous 1,2-diacylglycerol (DAG). Total lipids were extracted, radioactivity assayed, then the amount of label in the 1,2-diacyl-3-acetin fraction determined by TLC. There was a very high (greater than about 20-fold), largely soluble acetyl-CoA hydrolase activity that competed with the transferase for substrate.
All procedures were carried out on ice or at 4° C. Frozen embryo and endosperm tissue was added to two volumes of chilled buffer containing 0.3 M sucrose, 10 mM NaF, 5 mM MgCl2, 2 mM dithiothreitol, 1 mM EDTA and 40 mM Hepes -NaOH (pH 7.4), homogenized, and filtered through two layers of Miracloth. The residue was rehomogenized in two more volumes of buffer and filtered. The filtrates were combined and constitute the cell free homogenate (CFH). The CFH was frozen and stored at −70° C. until used and typically contained 12-17 mg protein/ml. Protein concentrations were estimated using the Bio-Rad protein assay, which is based on the Bradford method (1976), using bovine serum albumin as the standard.
The standard (Ac)DAGAT assay contained [1-^14C]acetyl-CoA (100 μM, 200,000 d.p.m.) plus 140 μl of homogenization buffer in a total volume of 200 μl. 1,2-dioleoyl-sn-glycerol (50 μg, 0.4 mM) was added as 1 μl of ethanol solution. The assay was initiated by adding 20 μl of CFH. The reaction was run at room temperature (25° C.) for 1S min and terminated by the addition of hot isopropanol (1 ml). Lipids were extracted with hexane and isopropanol as described by Hara and Radin (1978). The [^14C]lipid residue was dissolved in hexane and an aliquot assayed for radioactivity by liquid scintillation counting. The standard long-chain DAGAT assay contained 20 μM [1-^14C]palmitoyl-CoA and 20-40 μl of CFH and was run for 30 minutes: all other aspects were as for acetyl DAGAT assays.
Incubation of cell free homogenates (CFH) from developing Euonymus alata endosperm plus embryo tissues with [^14C]acetyl-CoA produced labeled lipids. […] Long-chain TAG elutes ahead of Ac-TAG in this solvent system. When this labeled band was recovered and analyzed by C 18 reversed-phase TLC, the radioactivity migrated with the mass bands corresponding to the major Ac-TAG molecular species, namely C16/C18 and C18/C18. When a unique exogenous diacylglycerol, 1,2-dihexanoyl-sn-glycerol, was added to the assays, a novel band appeared that co-chromatographed with the synthetic 3-acetyl-1,2-dihexanoin standard in both normal and reverse phase TLC systems. The migration of the standard was confirmed by GC analysis of recovered fractions from the TLC plates. […]

Row | Compound | Km (Lineweaver-Burke reciprocal plot, CFH, 25° C.) [µM] | Vmax (estimate from acetyl-CoA concentration curve) (acetyl-CoA concentration curve, cell free extracts of developing seeds) | Vmax (acetyl-CoA varied, Lineweaver-Burke reciprocal plot, CFH) [nmoles/min/gfw] | average enhancement of AcDAGAT activity by exogenous sn-1,2-diolein (0.1-1.2 mM sn-1,2-diolein added, endogenous DAG present) [%]
1 | CC(=O)SCCNC(=O)CCNC(=O)[C@H](O)C(C)(C)COP(=O)(O)OP(=O)(O)OC[C@H]1O[C@@H](n2cnc3c(N)ncnc32)[C@H](O)[C@@H]1OP(=O)(O)O [acetyl-CoA] | 100 | 120 nmoles/hour/gram fresh weight seed tissue | 2.5 | –
2 | CCCCCCCC/C=C\CCCCCCCC(=O)OC[C@H](CO)OC(=O)CCCCCCC/C=C\CCCCCCCC [sn-1,2-diolein, 1,2-dioleoyl-sn-glycerol] | – | – | – | 30

— patent US7429473B2, “Diacylglycerol acyltransferase genes, proteins, and uses thereof” (Michigan State University, priority 2003, dated 2008)
